# Data published in PubChem BioAssay (NCI).
# “And” between values parts separate entries of the source, which are not always exact repeats. Identical values can stand only once.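 Five concentrations, 48 hours, 96-well plates. GI50 = concentration required for 50% inhibition of growth. TGI denotes the concentration required for complete inhibition of growth.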
# How the values were obtained:
# Test in all cases: NCI-60 cell line screen, 48 h
# [1] = system: NCI-H23 lung
# [2] = system: A549 NSCLC
# [3] = system: MCF7 breast
# [4] = system: CAKI-1 renal
# [5] = system: NCI-H460 lung
# [6] = system: EKVX NSCLC
# [7] = system: SN12C renal
# [8] = system: CCRF-CEM leukemia
# [9] = system: SK-MEL-2 melanoma
# [10] = system: K-562 leukemia
SMILES,GI50 [1] [µM],TGI [1],GI50 [2] [µM],TGI [2] [µM],GI50 [3] [µM],TGI [3] [µM],GI50 [4] [µM],TGI [4] [µM],GI50 [5] [µM],TGI [5] [µM],GI50 [6] [µM],TGI [6] [µM],GI50 [7] [µM],TGI [7] [µM],GI50 [8] [µM],TGI [8] [µM],GI50 [9] [µM],TGI [9],GI50 [10] [µM],TGI [10] [µM]
COc1ccc2cc(C(=O)/C=C/c3cccc(OC)c3OC)ccc2c1,11.2,25.3 µM,7.11,24.8,0.455,22.9,11.6,31.9,18.3,37.5,17.9,36.7,3.83,14,5.46,> 100,21.3,40.3 µM,2.84,12.1
COc1cc([N+](=O)[O-])ccc1NC(=O)C(F)(F)F,,> 100 µM,,> 100,,> 100,,> 100,,> 100,,> 100,,> 100,,> 100,,> 100 µM,,> 100
Cn1cc(-c2csc(-c3cccc(F)c3)n2)c2cccnc21,17.3,36 µM,20.9,47.4,17.9,43.4,16.2,40.5,17,34.7,12.5,37.6,15.6,29.5,35.9,> 100,23.5,55.2 µM,23.3,87.1
COc1cc2c3c(n(CCCCl)c(=O)c2cc1OC)-c1ccccc1C3=O,97.3,> 100 µM,> 100,> 100,8.9,> 100,1.44,7.6,3.66,> 100,> 100,> 100,> 100,> 100,0.71,> 100,> 100,> 100 µM,> 100,> 100
CCOC(=O)c1c(C)n(Cc2ccc(OC)cc2)c2c1cc(O)c1[nH]c3c(c12)CCCC3,1.9,13.3 µM,8.71,71.9,4.97,19.8,16.4,54.9,8.63,27.8,4.9,52.5,7.79,28.9,4.22,> 100,2.39,7.05 µM,5.22,> 100
CC(C)(C)OC(=O)N(CCCN(CCn1c2c(c3ccccc3c1=O)C(=O)c1ccccc1-2)C(=O)OC(C)(C)C)CCn1c2c(c3ccccc3c1=O)C(=O)c1ccccc1-2,> 50,> 50 µM,> 50,> 50,> 50,> 50,> 50,> 50,49.7,> 50,> 50,> 50,> 50,> 50,13.3,> 50,> 50,> 50 µM,12.4,46
CC12CCCC(CC(=O)c3[nH]c4ccccc4c31)C2 (stereo not given),2.07,> 63.1 µM,2.26,> 55.9,0.4,> 56.7,0.535,> 78.8,1.58,19.7,1.55,> 100,1.91,20.3,0.459,> 100,1.91,> 59.1 µM,0.345,> 45.2
O=c1[nH]c(=O)n(C2CC(O)C(CS)O2)cc1F (stereo not given),,> 100 µM,,> 100,,> 43.5,,> 100,,> 100,,> 100,,> 100,,> 100,,> 100 µM,,> 100
CCCCCCCCCCC(O)C1CCC(C2CCC(C(O)CCCCC(O)CCCCCC(O)CC3=CC(C)OC3=O)O2)O1 (stereo not given),0.0144,> 25 µM,1.93,> 25,23.5,> 25,,> 25,10.7,> 25,> 25,> 25,> 25,> 25,1.58,> 25,3.62,> 25 µM,1.81,> 25
CN1C(NC(=O)c2ccc(Cl)nc2)=NS(=O)(=O)c2cc(Cl)ccc21,> 100,> 100 µM,> 100,> 100,> 100,> 100,> 100,> 100,> 100,> 100,> 100,> 100,> 100,> 100,> 100,> 100,> 100,> 100 µM,> 100,> 100
CCCNC(=S)N/N=C(\C)c1ccccn1,0.022,> 100 µM,0.447,> 100,< 0.01,,0.22,> 80.7,0.242,4.92,0.119,> 100,0.268,> 100,0.018,> 100,3.58,> 100 µM,0.0153,> 100
Cc1cc(C2CCCCC2)n(O)c(=O)c1,3.03,> 100 µM and 64.8 µM,1.34,> 100,3.01,> 100,1.8,21.4,0.507,,2.4,> 100,1.45,> 100,,74.5,10.5,> 100 µM and 65.6 µM,,> 100
Cc1[nH]c(N=Nc2ccccc2)nc1N=Nc1ccccc1,3.28,> 36.3 µM,2.86,12,2.73,15.3,1.04,3.48,2.37,8.09,3.05,29.9,3.51,22.4,2.19,> 25.3,3.59,19.1 µM,3.55,> 100
CCC1(O)C(=O)OCc2c1cc1n(c2=O)Cc2cc3c(N)cccc3nc2-1 (stereo not given),,0.0806 µM,,10.8,,> 39.7,,0.272,,1.13,,30.3,,0.595,,0.0858,,3.43 µM,,> 48.2
O=C(O)c1cc(N=Nc2ccc([As](=O)(O)O)cc2)ccc1O,,> 100 µM,,> 100,,> 100,,> 100,,> 100,,> 100,,> 100,,> 100,,> 100 µM,,> 100
CC(C)(C)C1=CC(=CC=C2C=CN(CCCCCCCCCCCO)C=C2)C=C(C(C)(C)C)C1=O,,10.6 µM,,3.58,,1.23,,6.7,,4.55,,5.61,,2.73,,11.7,,3.5 µM,,4.87
O=C(O)C1C(C(=O)O)C(C(=O)O)C1C(=O)O (stereo not given),,> 100 µM,,> 100,,> 100,,> 100,,> 100,,> 100,,> 100,,> 100,,> 100 µM,,> 100
COc1ccc(/C(=N/Nc2ccc([N+](=O)[O-])cc2)Sc2cc(Cl)c(C)cc2S(N)(=O)=O)cc1,4.69,9.77 µM,5.25,18.1,4.84,15.6,4.44,9.47,5.55,24.2,3.34,10.9,2.2,4.29,6.45,33.9,12.3,34 µM,4.67,15.4
COC(=O)[C@]12CCC(C)(C)C[C@H]1C1=CC[C@@H]3[C@@]4(C)C/C(=C/c5cccnc5)C(=O)C(C)(C)[C@@H]4CC[C@@]3(C)[C@]1(C)CC2,8.05,29.8 µM,11.9,> 100,3,14.7,6.87,22.3,5.53,26.6,10.9,31.1,4.86,23.4,2.81,13.7,11.6,32.1 µM,3.2,> 100
